From patent publication US9051348B2, “Ginsenoside with anti-cancer activity and the preparation method thereof” (Macau University of Science and Technology, priority 2012, dated 2015)
Read-outs that look alike come from different tables or passages of the source.

Legend:
[1] = test system: lung cancer cells (LLC-1); assay: MTT cytotoxicity assay in LLC-1 cells; format: cell-based, mouse
Procedure: (§1) The novel compound was dissolved in DMSO at final concentration of 100 mmol/L and stored at −20° C. Cytotoxicity was assessed using the 3-(4,5-dimethylthiazol-2-yl)-2,5-diphenyltetrazolium bromide assay as described previously. Several kinds of cells were seeded on 96-well plates, namely MCF-7, 4000 cells; HepG2, 4000 cells; HeLa, 3000 cells; A549, 4000 cells; LLC-1, 3000 cells; H1299, 3000 cells; CCD19Lu, 4000 cells per well. After overnight pre-incubation, the cells were exposed to different concentrations of the novel compound (0.039-100 μmol/L) or control compounds 20(S)-Rh2 and 20(R)-Rh2 for 3 days. Subsequently, 10 μL of MTT reagents was added to each well and incubated at 37° C. for 4 hours followed by the addition of 100 μL solubilization buffer (10% SDS in 0.01 mol/L HCl) and overnight incubation. A585 nm was determined from each well the next day. The percentage of viable cells was calculated using the following formula: Cell viability (%)=Atreated/Acontrol×100. Data was obtained from three independent experiments.

[2] = test system: human normal lung fibroblasts CCD19Lu; assay: MTT cytotoxicity assay in CCD19Lu cells; format: cell-based
Procedure: as §1

several tumor cell lines = settings: literature [2], cited from earlier work
osteoclastgenesis = settings: literature [2]; cited from earlier work
[3] = test system: panel of 7 tumor cell lines and human normal lung fibroblasts; settings: previous studies of the inventors, cited from earlier work
[4] = in cell culture; previous studies of the inventors; cited from earlier work
[5] = literature [4]; cited from earlier work
[6] = MTT cytotoxicity assay in CCD19Lu cells; format: cell-based, human; settings: human
Procedure: as §1

[7] = test system: other five cancer cell lines (MCF-7, HepG2, HeLa, A549, H1299); format: cell-based
Procedure: as §1

LLC-1 tumor = format: in vivo, male C57BL/6J mice; settings: for suppression on the tumor growth: 21-day treatment, vs vehicle
Procedure: The LLC-1 cells harvested from in vitro culture were adjusted to a concentration of 1.5×10^7/mL and 0.1 mL cell suspension was injected subcutaneously into the dorsal region of the male C57BL/6J mice. Subsequently, when 70% of mice had developed tumor into a volume (length×width^2×0.52) larger than 50 mm^3, the animals were randomly divided into the vehicle control and several treatment groups. The novel compound powder was dissolved with PEG400:ethanol:distilled water in a ratio of 60%:10%:30% (v/v/v), and orally administrated to mice by gavage feeding at doses of 10, 20, 40 and 80 mg/kg/day for 21 consecutive days. Oral administration of 80 mg/kg/day 20(R)-Rh2, 20(S)-Rh2 and 20(S)-Rg3, and 10 mg/kg/day 5-Fu were designed as control groups. In order to make sure all groups were appropriately blended, all the experimental procedures such as subcutaneous tumor cells injection, treatment and tumor size measurement were performed by three individual persons who were blended for animal group identity.

[8] = Sub-chronic lethal dose study, 7-day repeated oral dosing; format: in vivo, male C57BL/6J mice; settings: 160 and 320 mg/kg/day oral, 7-day treatment
Procedure: 10 male C57BL/6J mice were divided into two treatment groups, i.e. 160 mg/kg/day and 320 mg/kg/day. The novel compound powder was dissolved with PEG400:ethanol:distilled water in a ratio of 60%:10%:30% (v/v/v), and orally administrated to mice by gavage feeding at doses of 160 and 320 mg/kg/day for 7 consecutive days. The health condition of the animals was monitored and their body weights were recorded during this 7 days treatment duration.

[9] = Acute oral toxicity, OECD Test Guideline 423, 14-day; format: in vivo, C57BL/6J mice
Procedure: The acute oral toxicity of the novel compound was evaluated in line with the Organization for Economic Cooperation and Development (OECD) Guideline for Testing Chemicals—Acute Oral Toxicity—Acute Toxic Class Method (Test Guideline 423, Adopted on 17 Dec. 2001). Based on the result of Example 4, the Test Procedure with a Starting Dose of 2000 mg/kg (Annex 2d of OECD 423) was selected to evaluate the acute toxicity of the novel compound. In the test, 3 female and 3 male C57BL/6J mice (SPF grade) were fasted overnight and then orally administrated by gavage feeding with single dose of the novel compound solution at 2000 mg/kg.

Q: Which results are given for `CC(C)=CCC[C@@](C)(O)[C@H]1CC[C@]2(C)[C@@H]1[C@H](O)C[C@@H]1[C@@]3(C)CC[C@H](O[C@@H]4O[C@H](CO)[C@@H](O)[C@H](O)[C@H]4O)C(C)(C)[C@@H]3CC[C@]12C` [20(R)-Rh2, 20(R)-ginsenoside Rh2]?
A: cytotoxicity (in words) ([1]; LLC-1 cells, MTT, 3 days exposure): no cytotoxicity; cytotoxicity (in words) ([2]; CCD19Lu cells, MTT, 3 days exposure): no cytotoxicity; cell cytotoxicity (in words) (several tumor cell lines): without any cell cytotoxicity; osteoclastgenesis inhibition (in words) (osteoclastgenesis): selective osteoclastgenesis inhibitor; concentration up to which no cytotoxic effect ([3]; in cell culture): > 100 µM; solubility (in words) [4]: poor solubility; intestinal absorption (in words) [5]: lower absorption profiles

Q: Which results are given for `CC(C)=CCC[C@](C)(O)[C@H]1CC[C@]2(C)[C@@H]1[C@H](O)C[C@@H]1[C@@]3(C)CC[C@H](O[C@@H]4O[C@H](CO)[C@@H](O)[C@H](O)[C@H]4O)C(C)(C)[C@@H]3CC[C@]12C` [20(S)-Rh2]?
A: IC50 [1]: 46.5 µM; IC50 [2]: 80.5 µM; IC50 (several tumor cell lines; several tumor cell lines, read-out: cytotoxicity, IC50): 22 to 50 µM; IC50 ([3]; panel of 7 tumor cell lines and human normal lung fibroblasts, read-out: cytotoxicity, IC50): 45 to 65 µM

Q: What does the source list for `CC(C)=CCC[C@](C)(O)[C@H]1CC[C@]2(C)[C@@H]1[C@H](O)C[C@@H]1[C@@]3(C)CC[C@H](O[C@@H]4O[C@H](CO)[C@@H](O)[C@H](O)[C@H]4O)C(C)(C)[C@@H]3CC[C@]12C` [Rh2, Ginsenoside Rh2]?
A: intestinal absorption (in words) [5]: poor intestinal absorption; permeability (in words) [5]: poor permeability

Q: With `CC(C)(O)C1CC[C@](C)(C2CC[C@]3(C)C2[C@H](O)CC2[C@@]4(C)CC[C@H](O[C@@H]5OC(CO)[C@@H](O)C(O)C5O)C(C)(C)C4CC[C@]23C)O1` (stereo partly drawn) [novel compound] as the compound, how does the IC50 ([1]; Mus musculus, LLC1, 72 h, read-out: cytotoxic effect, IC50) read?
A: The IC50 was 56 µM.

Q: What about the IC50 at 3 days [6] of the same compound?
A: The IC50 at 3 days was over 100 µM.

Q: What about the “cytotoxic potency (in words)” value [7] of the same compound?
A: The value was “dose-dependent cytotoxic potency”.

Q: What about the “suppression on the tumor growth” value (LLC-1 tumor; 10 mg/kg/day oral, P>0.05) of the same compound?
A: Its value is 35.24%.

Q: What about the “suppression on the tumor growth” value (LLC-1 tumor; 20 mg/kg/day oral, P>0.05) of the same compound?
A: Its value is 40.49%.

Q: And the “suppression on the tumor growth” value (LLC-1 tumor; 40 mg/kg/day oral, P<0.05)?
A: Its value is 44.9%.

Q: And the “suppression on the tumor growth” value (LLC-1 tumor; 80 mg/kg/day oral, P<0.01)?
A: The value was 52.04%.

Q: What about the “adverse impacts on the major organs and body weight” value (LLC-1 tumor; mouse, in vivo, po) of the same compound?
A: The value was “without observable adverse impacts”.

Q: What about the animal survival [8] of the same compound?
A: Its animal survival is 100%.

Q: And the body weight [8]?
A: The body weight was “no significant drop of body weight”.

Q: And the “Globally Harmonized Classification System (GHS) class” value ([9]; acute oral toxicity, OECD Test Guideline 423)?
A: Its value is “Class 5 or unclassified”.

Q: What about the LD50 at 14 days ([9]; both sexes, C57BL/6J, mouse, in vivo, 2000 mg/kg, oral, mice, estimated per OECD Test Guideline 423 criteria) of the same compound?
A: The LD50 at 14 days was over 5000 mg/kg.

Q: And the “body weight and sign of toxicity” value ([9]; single oral dose 2000 mg/kg, 14 days)?
A: The value was “no significant drop of body weight and sign of toxicity”.

Q: And the animal death ([9]; single oral dose 2000 mg/kg, 14 days, both gender)?
A: The animal death was “zero animal death”.
